# Where “and” joins values, the source holds several entries; their conditions need not be identical. Equal values may be shown once. Entries after “also recorded” stand apart in the source; their conditions may differ. Read-outs that look alike come from different tables or passages of the source.
# Key:
# [1] = system: HHD-transfected RMAS cells loaded with relevant peptides; parameters: species or system HHD mice; conditions: mouse, in vivo, iv
# [2] = system: HHD-transfected RMAS cells loaded with relevant peptides; parameters: species or system HHD mice; conditions: mouse, in vivo
# [3] = system: HHD-transfected RMAS cells loaded with relevant peptides; parameters: species or system HHD mice; conditions: mouse, in vivo; remark: listed apart in the source
# [4] = system: HHD-transfected RMA-S cells loaded with relevant peptides; parameters: species or system HHD mice; conditions: in vivo
# [5] = system: HHD-transfected RMA-S target cells loaded with relevant peptides; parameters: species or system HHD mice; conditions: mouse, in vivo
# [6] = system: peptide-loaded HHD-transfected RMA-S cells; parameters: species or system HHD mice; conditions: mouse, in vivo
# [7] = system: HHD-transfected RMA-S cells loaded with relevant peptides; parameters: species or system A2A2Kb mice; conditions: in vivo, sc
# HLA-A2.1 molecules = HLA-A2.1 molecules (Homo sapiens, UniProt P04439, D140Y/D185E/D98H/E176V/E277Q/G131W/G231S/I119V/I121R/I166T/I218V/L300P/L318F/N151K/N90K/P208A/P217A/Q86G/Q94H/R138H/R169H/T345S)
sequence,measurement,setting,value
YLEPGPVTA [gp100.280],lysis in % (highest specific lysis),[1],0 (1) % and 0 (0) %
same,lysis in % following a second in vitro restimulation (numbers in parentheses),[1],0 (1) % and 0 (0) %
same,CTL responses (in words),[2],Some responses of weak to strong magnitude
same,CTL responses (in words),[3],Some responses of weak to strong magnitude
same,CTL inducer hierarchy (in words),[4]; mouse,weak
same,lysis in %,[5],"(12, 16) %"
same,CTL response against the epitope after polyepitope immunization (in words),[6],No specific lysis; also recorded: did not elicit CTL responses
TLGIVCPI (listed as Homo sapiens) [HPV E7.86],CTL inducer hierarchy (in words),[4]; mouse,inefficient
same,lysis in %,[5],"(34, 48) %"
same,lysis in % (maximal lysis observed for each responder mouse),[7],"(10, 13) %"
RMPEAAPPV (listed as Homo sapiens) [p53.65],CTL inducer hierarchy (in words),[4]; mouse,intermediate
same,CTL response when co-injected with helper peptide (in words),[5],stronger responses in a larger proportion of mice
same,lysis in %,[5],"(29, 31, 40, 41, 55) %"
IISAVVGIL (listed as Homo sapiens) [Her2/neu.654],lysis in % (maximal lysis observed for each responder mouse),[4]; sc,(42) %
same,CTL inducer hierarchy (in words),[4]; mouse,weak
LLGRNSFEV (listed as Homo sapiens) [p53.264],CTL inducer hierarchy (in words),[4]; mouse,inefficient; also recorded: poor CTL-induction capacity
same,lysis in %,[5],"(37, 64) %"
VLYRYGSFSV (listed as Homo sapiens) [gp100.476],lysis in % (maximal lysis observed for each responder mouse),[4]; sc,"(54, 70) %"
same,CTL inducer hierarchy (in words),[4]; mouse,weak
same,lysis in %,[5],"(20, 22, 59, 63, 75, 79) %"
same,lysis in % (maximal lysis observed for each responder mouse),[7],(29) %
same,CTL response against the epitope after polyepitope immunization (in words),[6],did not elicit CTL responses
YLSGANLNL (listed as Homo sapiens) [CEA.571],lysis in % (highest specific lysis),[1],4 (1) % and 1 (5) % and 1 (2) % and 0 (0) % and 2 (0) % and 4 (22) %
same,lysis in % following a second in vitro restimulation (numbers in parentheses),[1],4 (1) % and 1 (5) % and 1 (2) % and 0 (0) % and 2 (0) % and 4 (22) %
same,CTL inducer hierarchy (in words),[4]; mouse,strong
same,CTL response when co-injected with helper peptide (in words),[5],less immunogenic
same,lysis in %,[5],"(20, 32, 46) %"
KTWGQYWQV [gp100.154],CTL inducer hierarchy (in words),[4]; mouse,strong
same,CTL response when co-injected with helper peptide (in words),[5],stronger responses in a larger proportion of mice
same,lysis in %,[5],"(43, 59, 60, 64, 77. 77, 80, 82, 85) %"
same,CTL response against the epitope after polyepitope immunization (in words),[6],Strong responses
ITDQVPFSV [gp100.209],lysis in % (maximal lysis observed for each responder mouse),[4]; sc,(23) %
same,CTL inducer hierarchy (in words),[4]; mouse,weak
same,lysis in %,[5],"(31, 36, 56) %"
MLLAVLYCL (listed as Homo sapiens) [Tyrosinase.1],CTL inducer hierarchy (in words),[4]; mouse,inefficient
same,CTL response when co-injected with helper peptide (in words),[5],good CTL responses in a large proportion of mice
same,lysis in %,[5],"(27, 33, 40, 42, 51) %"
same,CTL response against the epitope after polyepitope immunization (in words),[6],No specific lysis; also recorded: did not elicit CTL responses
YMDGTMSQV [Tyrosinase.368-D],CTL responses (in words),[3],Some responses of weak to strong magnitude
same,lysis in % (maximal lysis observed for each responder mouse),[4]; sc,(10) %
same,CTL inducer hierarchy (in words),[4]; mouse,weak
same,lysis in %,[5],"(13, 15) %"
same,CTL response against the epitope after polyepitope immunization (in words),[6],elicited CTL responses depending on mice
ILTVILGVL (listed as Homo sapiens) [Melan-A/MART-1.32],CTL inducer hierarchy (in words),[4]; mouse,inefficient
same,CTL response against the epitope after polyepitope immunization (in words),[6],No specific lysis; also recorded: did not elicit CTL responses
YMNGTMSOV (YMNGTMSV; listed as Homo sapiens) [Tyrosinase.368-N],CTL inducer hierarchy (in words),[4]; mouse,intermediate
same,R/T (responder versus tested mice),"[4]; mouse, sc",4/15
same,lysis in %,[5],"(21, 36, 70, 72, 78) %"
same,R/T (responder versus tested mice),[5]; sc,5/12
same,R/T (responder versus tested mice),[7]; mouse,0/6
same,RA (relative affinity),HLA-A2.1 molecules,2.2
VLPDVFIRC (listed as Homo sapiens) [NA17-A.nt38],lysis in % (highest specific lysis),[1],0 (6) % and 3 (5) % and 5 (24) % and 3 (9) % and 6 (7) % and 0 (2) %
same,lysis in % following a second in vitro restimulation (numbers in parentheses),[1],0 (6) % and 3 (5) % and 5 (24) % and 3 (9) % and 6 (7) % and 0 (2) %
same,CTL inducer hierarchy (in words),[4]; mouse,intermediate
same,CTL response when co-injected with helper peptide (in words),[5],stronger responses in a larger proportion of mice
same,lysis in %,[5],"(36, 39, 61,64, 71) %"
same,CTL response against the epitope after polyepitope immunization (in words),[6],Strong responses
LLDGTATLRL [gp100.457],CTL inducer hierarchy (in words),[4]; mouse,inefficient
same,CTL response when co-injected with helper peptide (in words),[5],good CTL responses in a large proportion of mice; also recorded: strong CTL-inducers when associated with a helper peptide
same,lysis in %,[5],"(14, 35, 43, 77, 79) %"
same,CTL response against the epitope after polyepitope immunization (in words),[6],Significant responses
STPPPGTRV (listed as Homo sapiens) [p53.149],CTL inducer hierarchy (in words),[4]; mouse,inefficient
same,lysis in %,[5],"(20, 51, 71) %"
